Measurements from patent US8614324B2, “Filamin A binding anti-inflammatory and analgesic” (priority 2008, dated 2013).

Molecular target: T1, mu opiate receptor (MOR) (Rattus norvegicus, UniProt P33535)
T1 construct: from tissue; host or cells: striatal membrane preparation (rat striatum)
Assay: MOR agonist activity, [35S]GTPγS binding assay using striatal membranes
Type: biochemical
Design: MOR agonist activity, [35S]GTPγS binding to Gαo: reference not given here
Procedure: To assess the mu opiate receptor (MOR) agonist activity of positive compounds from the FLNA screening, compounds were tested in a [^35S]GTPγS binding assay using striatal membranes.
Striatal tissue was homogenized in 10 volumes of ice cold 25 mM HEPES buffer, pH 7.4, which contained 1 mM EGTA, 100 mM sucrose, 50 μg/ml leupeptin, 0.04 mM PMSF, 2 μg/ml soybean trypsin inhibitor and 0.2% 2-mercaptoethanol. The homogenates were centrifuged at 800×g for 5 minutes and the supernatants were centrifuged at 49,000×g for 20 minutes. The resulting pellets were suspended in 10 volume of reaction buffer, which contained 25 mM HEPES, pH 7.5, 100 mM NaCl, 50 μg/ml leupeptin, 2 μg/ml soybean trypsin inhibitor, 0.04 mM PMSF and 0.02% […].
The resultant striatal membrane preparation (200 μg) was admixed and maintained (incubated) at 30° C. for 5 minutes in reaction buffer as above that additionally contained 1 mM MgCl2 and 0.5 nM [^35S]GTPγS (0.1 μCi/assay, PerkinElmer Life and Analytical Sciences) in a total volume of 250 μl and continued for 5 minutes in the absence or presence of 0.1-10 μM of an assayed compound of interest. The reaction was terminated by dilution with 750 μl of ice-cold reaction buffer that contained 20 mM MgCl2 and 1 mM EGTA and immediate centrifugation at 16,000×g for 5 minutes.
The resulting pellet was solubilized by sonicating for 10 seconds in 0.5 ml of immunoprecipitation buffer containing 0.5% digitonin, 0.2% sodium cholate and 0.5% NP-40. Normal rabbit serum (1 μl) was added to 1 ml of lysate and incubated at 25° C. for 30 minutes. Nonspecific immune complexes were removed by incubation with 25 μl of protein A/G-conjugated agarose beads at 25° C. for 30 minutes followed by centrifugation at 5,000×g at 4° C. for 5 minutes. The supernatant was divided and separately incubated at 25° C. for 30 minutes with antibodies raised against Gαo proteins (1:1,000 dilutions).
The immunocomplexes so formed were collected by incubation at 25° C. for 30 minutes with 40 μl of agarose-conjugated protein A/G beads and centrifugation at 5,000×g at 4° C. for 5 minutes. The pellet was washed and suspended in buffer containing 50 mM Tris-HCl, pH 8.0, and 1% NP-40. The radioactivity in the suspension was determined by liquid scintillation spectrometry. […] DAMGO (H-Tyr-D-Ala-Gly-N-MePhe-Gly-OH; 1 or 10 μM) was used as a positive control.

[1] = 0.1 μM compound, striatal membranes
[2] = 1 μM compound + BFNA (1 μM β-funaltrexamine)
[3] = 1 μM compound, striatal membranes

T1 sequence (P33535 whole entry): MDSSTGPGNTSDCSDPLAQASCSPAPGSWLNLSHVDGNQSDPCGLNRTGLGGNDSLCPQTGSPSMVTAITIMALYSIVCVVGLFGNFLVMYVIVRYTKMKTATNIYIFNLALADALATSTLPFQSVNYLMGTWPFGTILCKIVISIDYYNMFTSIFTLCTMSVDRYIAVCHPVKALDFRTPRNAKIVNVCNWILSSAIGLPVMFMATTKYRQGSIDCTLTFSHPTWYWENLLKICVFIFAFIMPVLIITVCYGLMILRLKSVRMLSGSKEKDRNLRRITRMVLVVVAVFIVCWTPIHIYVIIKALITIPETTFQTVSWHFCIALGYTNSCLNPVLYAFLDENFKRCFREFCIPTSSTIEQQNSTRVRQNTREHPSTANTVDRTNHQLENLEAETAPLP

SMILES | MOR agonist activity, [35S]GTPγS binding to Gαo [1] [%] | MOR agonist activity, [35S]GTPγS binding to Gαo [2] [%] | MOR agonist activity, [35S]GTPγS binding to Gαo [3] [%]
CCN1CCC2(CC1)OCCN2S(=O)(=O)c1ccc(C(C)=O)cc1 [Compound C0094M] | 172.5 | 115.3 | 263.5
CC(=O)c1ccc(S(=O)(=O)N2CCOC23CCN(C)CC3)cc1 [Compound C0093M] | 140.0 | 44.0 | 211.8
CCCCN1CCC2(CC1)OCCN2S(=O)(=O)c1ccc(OC)cc1 [Compound C0102M] | 131.8 | 150.4 | 272.0
O=[N+]([O-])c1ccc(S(=O)(=O)N2CCC3(CC2)NCCS3)cc1 [Compound C0044] | 173.7 | 59.1 | 280.1
CC(=O)c1ccc(S(=O)(=O)N2CC(CN(C)C)OC23CCNCC3)cc1 (stereo not drawn) [Compound C0118M] | 166.2 | 79.2 | 261.5
O=[N+]([O-])c1ccc(S(=O)(=O)N2CCC3(CC2)NCCO3)cc1 [Compound C0040] | 145.8 | 90.4 | 308.3
CCN1CCC2(CC1)OCCN2S(=O)(=O)c1ccc(OC)cc1 [Compound C0089M] | 234.5 | 81.9 | 295.3
CN1CCC2(CC1)OCCN2S(=O)(=O)c1ccc(S(C)(=O)=O)cc1 [Compound C0106M] | 171.8 | 117.2 | 240.7
CC(=O)c1ccc(S(=O)(=O)N2CCC3(CC2)NC(=O)CO3)cc1 [Compound C0087M] | 262.8 | 142.5 | 329.6
O=C1CN(Cc2ccccc2)C2(CCNCC2)N1 [Compound C0115M] | 177.2 | 118.4 | 226.8
O=C1CN(C2CCc3ccccc3C2)C2(CCN(S(=O)(=O)c3ccccc3)CC2)N1 (stereo not drawn) [C0136M(P5)] | 176.8 | 74.5 | 237.3
C[C@@H](NC(=O)[C@@H](N)Cc1ccc(O)cc1)C(=O)NCC(=O)N(C)[C@@H](Cc1ccccc1)C(=O)NCCO [DAMGO, reference compound] | 168.5 | 53.2 | 266.1
CCCCN1CCC2(CC1)OCCN2S(=O)(=O)c1ccc(C(C)=O)cc1 [Compound C0101M] | 138.2 | 174.8 | 274.3
C=CCN1CCC2(CC1)OCCN2S(=O)(=O)c1ccc(OC)cc1 [Compound C0091M] | 207.9 | 80.8 | 274.4
CN1CCC2(CC1)NC(=O)CN2Cc1ccccc1 [Compound C0104M] | 188.2 | 143.8 | 238.9
CN1CCC2(CC1)NCC(=O)N2Cc1ccccc1 [Compound C0105M] | 198.1 | 73.1 | 220.3

SMILES | MOR agonist activity, [35S]GTPγS binding to Gαo [1] [%] | MOR agonist activity, [35S]GTPγS binding to Gαo [2] [%] | MOR agonist activity, [35S]GTPγS binding to Gαo [3] [%]
CC(=O)c1ccc(S(=O)(=O)N2CCC3(CC2)OCCN3S(C)(=O)=O)cc1 [Compound C0056] | 98.6 | 86.3 | 193.4
CS(=O)(=O)c1ccc(S(=O)(=O)N2CCOC23CCN(CC2CC2)CC3)cc1 [Compound C0126M] | 181.8 | 108.5 | 265.3
COc1ccc(S(=O)(=O)N2CCOC23CCN(CC2CC2)CC3)cc1 [Compound C0090M] | 237.0 | 41.0 | 341.0
CC(=O)c1ccc(S(=O)(=O)N2CC(CN(C)C)OC23CCN(C)CC3)cc1 (stereo not drawn) [Compound C0108M] | 205.6 | 76.9 | 258.5
Cc1ccc(S(=O)(=O)N2CCOC23CCN(CC2CC2)CC3)cc1 [Compound C0134M] | 158.5 | 46.6 | 207.3
O=C1CNC2(CCNCC2)N1Cc1ccccc1 [Compound C0114M] | 114.0 | 35.9 | 144.3
O=C1CN(Cc2ccccc2)C2(CCN(CC3CC3)CC2)N1 [Compound C0125M] | 168.6 | 159.7 | 195.2
COc1ccc(S(=O)(=O)N2CCC3(CC2)NCCO3)cc1 [Compound C0026] | 207.2 | 21.2 | 288.4
CC(=O)c1ccc(S(=O)(=O)N2CC(CN(C)C)OC23CCN(CC2CC2)CC3)cc1 (stereo not drawn) [Compound C0128M] | 197.8 | 63.9 | 286.0
CC(=O)c1ccc(S(=O)(=O)N2C(Cc3c[nH]cn3)C(=O)NC23CCNCC3)cc1 (stereo not drawn) [Compound C0119M] | 105.7 | 35.1 | 167.8
COc1ccc(S(=O)(=O)N2CCOC23CCN(C)CC3)cc1 [Compound C0088M] | 276.3 | 177.1 | 355.3
O=C1CN(Cc2ccccc2)C2(CCN(C3CCCCC3)CC2)N1 [C0137M(P7)] | 180.8 | 55.8 | 193.8
C=CCN1CCC2(CC1)OCCN2S(=O)(=O)c1ccc(C(C)=O)cc1 [Compound C0096M] | 186.4 | 127.1 | 328.9
CC(=O)c1ccc(S(=O)(=O)N2CCOC23CCNCC3)cc1 [Compound C0046] | 286.2 | 156.8 | 492.9
CC(=O)c1ccc(S(=O)(=O)N2CCOC23CCN(CC2CC2)CC3)cc1 [Compound C0095M] | 189.1 | 107.7 | 224.6
